Drawing on US5391540A, “Substituted pyridine compounds” (Rohm and Haas Company, priority 1993, dated 1995), this text covers inhibition for 11 compounds.

Holding throughout (assay): Pre-emergent herbicidal activity (Table A)
Format in all cases: in vivo

Experiment [1] deals with Barnyardgrass. The conditions noted are these: Echinochloa crus-galli, pre-emergence, Bygr, 11.2 kg/ha, 10-14 days, read-out: herbicidal rating (% inhibition). The gist of the method: (§1)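 Seeds or perennial propagules set on compacted topsoil, then covered with soil mixed with a known amount of test compound applied in acetone or water carrier. Ratings assigned on a scale based on percent inhibition of each species.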

The test system of experiment [2] is Canada thistle. As to conditions: Cirsium arvense, pre-emergence, Cath, 11.2 kg/ha, 10-14 days, read-out: herbicidal rating (% inhibition). The gist of the method:
as §1

Experiment [3] deals with Cocklebur. The conditions noted are these: Xanthium strumarium, pre-emergence, Cobu, 11.2 kg/ha, 10-14 days, read-out: herbicidal rating (% inhibition). The gist of the method:
as §1

The test system of experiment [4] is Common Lambsquarters. As to conditions: Chenopodium album, pre-emergence, Colq, 11.2 kg/ha, 10-14 days, read-out: herbicidal rating (% inhibition). The gist of the method: as §1
Experiment [5] relates to Downy Brome. As to conditions: Bromus tectorum, pre-emergence, Dobr, 11.2 kg/ha, 10-14 days, read-out: herbicidal rating (% inhibition). The gist of the method:
as §1

For experiment [6], the system named is Morningglory. As to conditions: Ipomoea, pre-emergence, Mogl, 11.2 kg/ha, 10-14 days, read-out: herbicidal rating (% inhibition). A digest of the protocol:
as §1

Experiment [7] relates to Pennsylvania Smartweed. The conditions noted are these: pre-emergence, Pesw, 11.2 kg/ha, 10-14 days, read-out: herbicidal rating (% inhibition). The gist of the method: as §1
Experiment [8] concerns Quackgrass. The conditions noted are these: pre-emergence, Rhqg, 11.2 kg/ha, 10-14 days, read-out: herbicidal rating (% inhibition). A digest of the protocol: as §1
Experiment [9] has as its system Rhizome Johnsongrass. As to conditions: Sorghum halepense, pre-emergence, Rhjg, 11.2 kg/ha, 10-14 days, read-out: herbicidal rating (% inhibition). The gist of the method:
as §1

For experiment [10], the system named is Velvetleaf. As to conditions: Abutilon theophrasti, pre-emergence, Vele, 11.2 kg/ha, 10-14 days, read-out: herbicidal rating (% inhibition). The gist of the method: as §1
In experiment [11] the test system is Yellow Nutsedge. As to conditions: Cyperus, pre-emergence, Yens, 11.2 kg/ha, 10-14 days, read-out: herbicidal rating (% inhibition). A digest of the protocol:
as §1

For `COC(=O)c1c(OC)nc(C(F)(F)F)c(C(=O)OC)c1C(C)C` [Compound 63, 3,5-pyridinedicarboxylic acid, 2-methoxy-4-(1-methylethyl)-6-(trifluoromethyl)-, dimethyl ester], the inhibition at 11200 g/ha in experiment [1] fell in the range of 75 to 100%; in [2], 50 to 74%; in experiment [3], 0 to 24%; in [4], 75 to 100%; in experiment [5], 75 to 100%; in [6], 75 to 100%. Further, the inhibition at 11200 g/ha in experiment [7], in experiment [8], in [9], in [10] and in experiment [11] was 75 to 100% each time.

As for `COC(=O)c1c(OC)nc(C(F)(F)F)c(C2=NCC(C)S2)c1CC(C)C` (stereo not shown) [Compound 64, 3-pyridinecarboxylic acid, 5-(4,5-dihydro-5-methy1-2-thiazolyl)-2-methoxy-4-(2-methylpropyl)-6-(trifluoromethyl)-, methyl ester], the inhibition at 11200 g/ha in [1], in [2], in experiment [3], in [4], in [5] and in experiment [6] was 75 to 100% in each case. The inhibition at 11200 g/ha in [7] fell in the range of 75 to 100%; in experiment [8], 50 to 74%; in experiment [9], 0 to 24%; in [10], 75 to 100%; in experiment [11], 0 to 24%.

Regarding `COc1nc(C(F)(F)F)c(C(=O)SC)c(C2CCC2)c1C(=O)SC` [Compound 65, 3,5 pyridinedicarbothioic acid, 4-cyclobuty1-2-methoxy-6-(trifluoromethyl)-, S,S-dimethyl ester], the inhibition at 11200 g/ha in experiment [1] was in the range of 75 to 100%; in experiment [2] it was 75 to 100%; in [3] it was 25 to 49%; in experiment [4], 75 to 100%; in experiment [5], 75 to 100%; in [6], 75 to 100%. Further, the inhibition at 11200 g/ha in experiment [7] was in the range of 75 to 100%; in experiment [8], 50 to 74%; in experiment [9] it was 0 to 24%; in [10] it was 75 to 100%; in [11], 25 to 49%.

On to `COC(=O)c1c(OC)nc(C(F)(F)F)c(C(=O)N2CCCC2)c1CC(C)C` [Compound 66, 3-pyridinecarboxylic acid, 2-methoxy-4-(2-methylpropyl)-5-(1-pyrrolidinylcarbonyl)-6-(trifluoromethyl)-, methyl ester], for which the inhibition at 11200 g/ha in experiment [1] lay within 75 to 100%; in experiment [2], 75 to 100%; in [3], 0 to 24%; in [4], 75 to 100%; in experiment [5] it was 75 to 100%; in [6] it was 50 to 74%. The inhibition at 11200 g/ha in [7] fell in the range of 25 to 49%; in experiment [8], 75 to 100%; in experiment [9], 0 to 24%; in experiment [10], 25 to 49%; in [11], 0 to 24%.

For the compound `COC(=O)c1c(OC)nc(C(F)(F)F)c(C(=O)N2CCCCC2)c1CC(C)C` [Compound 67, 3-pyridinecarboxylic acid, 2-methoxy-4-(2-methylpropyl)-5-(1-piperidinylcarbonyl)-6-(trifluoromethyl)-, methyl ester], the inhibition at 11200 g/ha was in the range of 75 to 100% in [1]; 75 to 100% in [2]; 0 to 24% in experiment [3]; 75 to 100% in experiment [4]; 75 to 100% in experiment [5]; 75 to 100% in experiment [6]. In addition, the inhibition at 11200 g/ha in [7] lay in the range of 75 to 100%; in [8] it was 75 to 100%; in [9], 0 to 24%; in experiment [10] it was 50 to 74%; in [11], 0 to 24%.

Consider `COC(=O)c1c(OC)nc(C(F)(F)F)c(C(=O)N2CCC2)c1CC(C)C` [Compound 68, 3-pyridinecarboxylic acid, 5-(1-azetidinylcarbonyl)-2-methoxy-4-(2-methylpropyl)-6-(trifluoromethyl)-, methyl ester], for which the inhibition at 11200 g/ha in experiment [1] lay within 75 to 100%; in experiment [2], 25 to 49%; in [3] it was 0 to 24%; in experiment [4], 75 to 100%; in experiment [5], 75 to 100%; in [6] it was 50 to 74%. Also, the inhibition at 11200 g/ha was 25 to 49% in [7]; 75 to 100% in [8]; 25 to 49% in [9]; 0 to 24% in [10]; 0 to 24% in [11].

Regarding `COC(=O)c1c(OC)nc(C(F)(F)F)c(C(=O)N2CCOCC2)c1CC(C)C` [Compound 69, 3-pyridinecarboxylic acid, 2-methoxy-4-(2-methylpropyl)-5-(4-morpholinyl)carbony1-6-(trifluoromethyl)-, methyl ester], the inhibition at 11200 g/ha was in the range of 75 to 100% in experiment [1]; 50 to 74% in experiment [2]; 0 to 24% in [3]; 75 to 100% in experiment [4]; 25 to 49% in experiment [5]; 25 to 49% in experiment [6]. The inhibition at 11200 g/ha lay within 0 to 24% in experiment [7]; 75 to 100% in experiment [8]; 50 to 74% in [9]; 0 to 24% in experiment [10]; 0 to 24% in experiment [11].

With `COC(=O)c1c(OC)nc(C(F)(F)F)c(C(=O)N2CCSCC2)c1CC(C)C` [Compound 70, 3-pyridinecarboxylic acid, 2-methoxy-4-(2-methylpropyl)-5-(4-thiomorpholinylcarbonyl)-6-(trifluoromethyl)-, methyl ester], the inhibition at 11200 g/ha in experiment [1] fell in the range of 75 to 100%; in [2], 50 to 74%; in experiment [3], 0 to 24%; in experiment [4], 75 to 100%; in experiment [5], 50 to 74%; in experiment [6] it was 50 to 74%. Further, the inhibition at 11200 g/ha is 0 to 24% in experiment [7]; 50 to 74% in experiment [8]; 0 to 24% in [9]; 0 to 24% in [10]; 25 to 49% in experiment [11].

In the case of `COC(=O)c1c(OC)nc(C(F)(F)F)c(C(=O)N2CCSC2)c1CC(C)C` [Compound 71, 3-pyridinecarboxylic acid, 2-methoxy-4-(2-methylpropyl)-5-(3-thiazolidinylcarbonyl)-6-(trifluoromethyl)-, methyl ester], the inhibition at 11200 g/ha was 75 to 100% in [1]; 25 to 49% in [2]; 0 to 24% in [3]; 75 to 100% in experiment [4]; 75 to 100% in experiment [5]; 50 to 74% in experiment [6]. Besides, the inhibition at 11200 g/ha in experiment [7] lay in the range of 50 to 74%; in experiment [8], 50 to 74%; in experiment [9], 0 to 24%; in experiment [10] it was 25 to 49%; in experiment [11], 0 to 24%.

Regarding `COC(=O)c1c(OC)nc(C(F)(F)F)c(C(=O)N2CC2C)c1CC(C)C` (stereo not shown) [Compound 72], the inhibition at 11200 g/ha in experiment [1] lay within 75 to 100%; in [2] it was 0 to 24%; in experiment [3], 0 to 24%; in experiment [4], 75 to 100%; in [5] it was 75 to 100%; in [6], 25 to 49%. Also, the inhibition at 11200 g/ha lay within 25 to 49% in experiment [7]; 0 to 24% in [8]; 0 to 24% in experiment [9]; 25 to 49% in experiment [10]; 0 to 24% in experiment [11].

With `COC(=O)c1c(OC)nc(C(F)(F)F)c(C(=O)N2CCCCCC2)c1CC(C)C` [Compound 73, 3-pyridinecarboxylic acid, 5-[(hexahydro-1H-azepin-1-yl)carbonyl]-2-methoxy-4-(2-methylpropyl)-6-(trifluoromethyl)-, methyl ester], the inhibition at 11200 g/ha fell in the range of 75 to 100% in experiment [1]; 75 to 100% in experiment [2]; 0 to 24% in experiment [3]; 75 to 100% in [4]; 75 to 100% in experiment [5]; 50 to 74% in experiment [6]. For the same compound, the inhibition at 11200 g/ha in [7] is 75 to 100%; in [8], 75 to 100%; in [9], 75 to 100%; in [10], 25 to 49%; in experiment [11] it was 0 to 24%.
